Data published in patent US20230146507A1, “N-PHENYL-3-MERCAPTOPROPANAMIDE DERIVATIVES AS METALLO-BETA-LACTAMASE INHIBITORS FOR THE TREATMENT OF BACTERIAL INFECTIONS” (Helmholtz-Zentrum Für Infektionsforschung GmbH, priority 2020, published 2023).

What was measured:
NDM-1 = molecular target: T1, NDM-1 (Klebsiella pneumoniae, UniProt C7C422); experiment: In vitro inhibition assay (kinetic fluorescence-based activity assay), NDM-1; format: biochemical; conditions: Means and SD of at least two independent experiments
T1 construct: made in house
Experimental: (§1) Protein expression and purification. The expression of IMP-7, VIM-1, and NDM-1 was performed according to the protocol previously published by Klingler et al. (Klingler, F. M.; Wichelhaus, T. A.; Frank, D.; Cuesta-Bernal, J.; El-Delik, J.; Müller, H. F.; Sjuts, H.; Gottig, S.; Koenigs, A.; Pos, K. M.; et al. Approved Drugs Containing Thiols as Inhibitors of Metallo-β-Lactamases: Strategy to Combat Multidrug-Resistant Bacteria. J. Med. Chem. 2015, 58 (8), 3626-3630. https://doi.org/10.1021/jm501844d) with slight modifications.
(§2) In vitro inhibition assay. Activity assays for NDM-1, VIM-1, VIM-2 and IMP-7 were carried out, as described by Klingler et al. Final protein concentrations were 0.5 nM (NDM-1), 4.0 nM (VIM-1), and 0.1 nM (IMP-7) in a 50 mM HEPES buffer (pH 7.5, 0.01% Triton X-100) Substrate (Fluorocillin™ (Invitrogen, Darmstadt, Germany) was dissolved in assay buffer to a final concentration of 888 nM. Test compounds were dissolved and pre-diluted in DMSO (final concentration: 1%). In a black polystyrol 96-well plate (Corning) an amount of […] of the respective inhibitor solution at different concentrations was incubated with […] of respective protein containing buffer for 30 minutes at room temperature. […] of substrate solution was added. The readout of the emitted fluorescence was started immediately (45 s for 30 cycles) using a Tecan Infinite F200Pro (Tecan Group Ltd; excitation at 495 nm and emission at 525 nm). Blank controls were performed without enzyme. Positive controls were performed with enzyme but without inhibitor. The inhibitory activity of each test compound was measured in three independent experiments. For calculation of IC50 values, data obtained from measurements with eight different inhibitor concentrations were used. For the evaluation of the sigmoidal dose response equation (variable slope with four parameters) GraphPad Prism 5 (GraphPad Software, La Jolla, Calif., USA) was used.

VIM-1 = molecular target: T2, VIM-1 (Pseudomonas aeruginosa, UniProt A0A0F7KYQ8); experiment: In vitro inhibition assay (kinetic fluorescence-based activity assay), VIM-1; format: biochemical; conditions: Means and SD of at least two independent experiments
T2 construct: made in house
Experimental: as §1, §2

IMP-7 = IMP-7 (Pseudomonas aeruginosa, UniProt Q93AU3); experiment: In vitro inhibition assay (kinetic fluorescence-based activity assay), IMP-7; format: biochemical; conditions: Means and SD of at least two independent experiments
Experimental: as §1, §2

[1] = system: different isolates from E. coli and P. aeruginosa; experiment: MIC assay, intrinsic antibacterial activity; format: cell-based; conditions: compound alone
E. coli IMP-1 (T2360) = experiment: Checkerboard assay with imipenem, E. coli IMP-1 (T2360); format: cell-based
Experimental: (§3) Fractional inhibitory concentration index (FICI). The checkerboard assay was performed to test for synergy in vitro. […] FICIs≤0.5 were defined as synergistic; FICIs from >0.5 to […] were defined as additive; FICIs from 1 to ≤4 were defined as indifferent and FICIs>4 were defined as antagonistic (Doern, C. D. When Does 2 plus 2 Equal 5? A Review of Antimicrobial Synergy Testing. J. Clin. Microbial. 2014, 52 (12), 4124-4128. https://doi.org/10.1128/JCM.01121-14).

E. coli VIM-1 (T2544) = experiment: Checkerboard assay with imipenem, E. coli VIM-1 (T2544); format: cell-based
Experimental: as §3

E. coli NDM-1 (T2359) = experiment: Checkerboard assay with imipenem, E. coli NDM-1 (T2359); format: cell-based; conditions: Table 6
Experimental: as §3

T1 sequence (C7C422 29-270, looked up, species assumed): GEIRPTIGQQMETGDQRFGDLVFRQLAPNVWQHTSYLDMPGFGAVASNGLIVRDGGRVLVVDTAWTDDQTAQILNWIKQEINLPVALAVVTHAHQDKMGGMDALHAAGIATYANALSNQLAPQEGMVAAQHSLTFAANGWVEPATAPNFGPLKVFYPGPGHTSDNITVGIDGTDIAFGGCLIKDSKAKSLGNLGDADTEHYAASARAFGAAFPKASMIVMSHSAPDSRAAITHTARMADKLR
Chain of IMP-7 (Q93AU3 entry or part of it): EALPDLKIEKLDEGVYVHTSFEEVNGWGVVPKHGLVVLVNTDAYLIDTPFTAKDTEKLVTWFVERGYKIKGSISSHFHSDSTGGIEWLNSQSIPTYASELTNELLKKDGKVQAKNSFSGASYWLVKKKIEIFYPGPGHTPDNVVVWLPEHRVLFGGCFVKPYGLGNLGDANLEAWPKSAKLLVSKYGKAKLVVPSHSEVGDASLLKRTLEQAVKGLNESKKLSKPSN

Structure (SMILES) | IC50 (NDM-1) | IC50 (VIM-1) | intrinsic antibacterial activity (MIC) [1] | Imipenem MIC (E. coli IMP-1 (T2360); +2 mg/L compound) | Imipenem MIC (E. coli IMP-1 (T2360); +4 mg/L compound) | Imipenem MIC (E. coli IMP-1 (T2360); +8 mg/L compound) | Imipenem MIC (E. coli IMP-1 (T2360); +16 mg/L compound) | Imipenem MIC (E. coli IMP-1 (T2360); +32 mg/L compound) | Imipenem MIC (E. coli IMP-1 (T2360); +64 mg/L compound) | Imipenem MIC (E. coli IMP-1 (T2360); +128 mg/L compound) | Imipenem MIC (E. coli VIM-1 (T2544); +2 mg/L compound) | Imipenem MIC (E. coli VIM-1 (T2544); +4 mg/L compound) | Imipenem MIC (E. coli VIM-1 (T2544); +8 mg/L compound) | Imipenem MIC (E. coli VIM-1 (T2544); +16 mg/L compound) | Imipenem MIC (E. coli VIM-1 (T2544); +32 mg/L compound) | Imipenem MIC (E. coli VIM-1 (T2544); +64 mg/L compound) | Imipenem MIC (E. coli VIM-1 (T2544); +128 mg/L compound) | Imipenem MIC (E. coli NDM-1 (T2359); +2 mg/L compound) | Imipenem MIC (E. coli NDM-1 (T2359); +4 mg/L compound) | Imipenem MIC (E. coli NDM-1 (T2359); +8 mg/L compound) | also measured
O=C(CCS)Nc1ccc(C(=O)O)cc1 [HIPS5695] | 1 ± 0.4 µM | 0.6 µM | no intrinsic antibacterial activity | 2 µg/mL | 2 µg/mL | 2 µg/mL | 1 µg/mL | 1 µg/mL | 0.5 µg/mL | 0.5 µg/mL | 16 µg/mL | 16 µg/mL | 16 µg/mL | 16 µg/mL | 4 µg/mL | 2 µg/mL | 1 µg/mL | 128 µg/mL | 128 µg/mL | 128 µg/mL | IC50 (μM) IMP-7 (IMP-7): n.i.; Imipenem MIC (E. coli NDM-1 (T2359); +16 mg/L compound): 128 µg/mL; Imipenem MIC (E. coli NDM-1 (T2359); +32 mg/L compound): 128 µg/mL; Imipenem MIC (E. coli NDM-1 (T2359); +64 mg/L compound): 32 µg/mL; Imipenem MIC (E. coli NDM-1 (T2359); +128 mg/L compound): 8 µg/mL
NC(=O)NS(=O)(=O)c1ccc(NC(=O)CCS)cc1 [HIPS5682] | 8.6 ± 0.2 µM | 2 ± 0.1 µM | no intrinsic antibacterial activity | 2 µg/mL | 2 µg/mL | 2 µg/mL | 1 µg/mL | 1 µg/mL | 1 µg/mL | 1 µg/mL | 32 µg/mL | 32 µg/mL | 32 µg/mL | 32 µg/mL | 16 µg/mL | 8 µg/mL | 2 µg/mL | 128 µg/mL | 128 µg/mL | 128 µg/mL | IC50 (IMP-7): 12.6 ± 2.8 µM; Imipenem MIC (E. coli NDM-1 (T2359); +16 mg/L compound): 128 µg/mL; Imipenem MIC (E. coli NDM-1 (T2359); +32 mg/L compound): 128 µg/mL; Imipenem MIC (E. coli NDM-1 (T2359); +64 mg/L compound): 64 µg/mL; Imipenem MIC (E. coli NDM-1 (T2359); +128 mg/L compound): 16 µg/mL
N=C(N)NS(=O)(=O)c1ccc(NC(=O)CCS)cc1 [HIPS5683] | 2.1 ± 0.1 µM | 0.5 µM | no intrinsic antibacterial activity | 2 µg/mL | 1 µg/mL | 1 µg/mL | 1 µg/mL | 1 µg/mL | 1 µg/mL | 0.5 µg/mL | 32 µg/mL | 32 µg/mL | 32 µg/mL | 32 µg/mL | 16 µg/mL | 8 µg/mL | 2 µg/mL | 128 µg/mL | 128 µg/mL | 128 µg/mL | IC50 (IMP-7): 3.3 ± 0.4 µM; Imipenem MIC (E. coli NDM-1 (T2359); +16 mg/L compound): 128 µg/mL; Imipenem MIC (E. coli NDM-1 (T2359); +32 mg/L compound): 128 µg/mL; Imipenem MIC (E. coli NDM-1 (T2359); +64 mg/L compound): 64 µg/mL; Imipenem MIC (E. coli NDM-1 (T2359); +128 mg/L compound): 16 µg/mL
O=C(CCS)Nc1cccc(S(=O)(=O)O)c1 [HIPS5672] | 1.3 µM | 1.6 ± 0.1 µM | no intrinsic antibacterial activity | 2 µg/mL | 2 µg/mL | 2 µg/mL | 1 µg/mL | 1 µg/mL | 1 µg/mL | 0.5 µg/mL | 64 µg/mL | 64 µg/mL | 64 µg/mL | 32 µg/mL | 32 µg/mL | 8 µg/mL | 4 µg/mL | 128 µg/mL | 128 µg/mL | 128 µg/mL | IC50 (IMP-7): 3.6 ± 0.3 µM; Imipenem MIC (E. coli NDM-1 (T2359); +16 mg/L compound): 128 µg/mL; Imipenem MIC (E. coli NDM-1 (T2359); +32 mg/L compound): 128 µg/mL; Imipenem MIC (E. coli NDM-1 (T2359); +64 mg/L compound): 32 µg/mL; Imipenem MIC (E. coli NDM-1 (T2359); +128 mg/L compound): 2 µg/mL
